Among the data in patent publication US20260097047A1, “Small molecule inhibitors of the ribosome biogenesis factor NVL2” (Board of Regents, The University of Texas System, priority 2023, published 2026) are IC50 values, retold here.

Where two headings read alike, the source gives them in different places.

The assay relates to HCT116 cells. Put plainly: Cell viability assay (CellTiter-Glo, 72 hours) in HCT116 human colorectal cancer cells. The class given is cell-based. The essentials:
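Ten-point IC50 came from an asymmetric five-parameter fit of luminescence corrected to vehicle wells. ATP content was measured by CellTiter-Glo 72 h after dosing at 37 °C. Cells were seeded at 2,000/well the day before, with 0.5% DMSO in all wells.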
On the technique in general: ATP-based viability assays read luminescence as a measure of living cells.

The mark [1] stands for this setting: Table 5, HCT116, 72 hours, read-out: Activity.
[2] abbreviates: Table 4, HCT116, 72 hours, read-out: Activity.
[3] abbreviates: Table 8, analogs of scaffold drawing 43 defined by R^2, R^3, X/Y, W, read-out: Activity (IC50 class, cell viability assay).
The mark [4] stands for this setting: Homo sapiens, HCT-116, Table 5, HCT116, 72 hours, read-out: Activity.
[5] abbreviates: Table 9, HCT116, 72 hours, read-out: Activity.
[6] abbreviates: Table 7, cell viability assay, CellTiter-Glo, 72 hours, scaffold drawing 42 with R^2, R^3, X/Y, Z, read-out: Activity.
The mark [7] stands for this setting: Table 6, HCT116, 72 hours, read-out: Activity.

With `CC#CCN1C(=O)c2ccccc2Sc2cc(Nc3ncccc3C(=O)OC)ccc21` [Methyl 2-((10-(but-2-yn-1-yl)-11-oxo-10,11-dihydrodibenzo[b,f][1,4]thiazepin-7-yl)amino) nicotinate], the IC50 under setting [1] was in the range of 1000 to 5000 nM.
`CC#CCN1C(=O)c2ccccc2Sc2cc(NC(=S)N[C@H]3C[C@@H](OC)C3)ccc21` [Table 4: —CH2CCMe; cis-3-MeOcBu; CH]: under setting [2], the IC50 was less than 500 nM.
For the compound `CC#CCN1C(=O)c2ccc(Cl)cc2Sc2cc(NC(=O)NCCOC)ccc21` [—CH2CCMe; NH(CH2)2OMe; CCl/CH; CH], the IC50 under setting [3] is less than 500 nM.
Take `CC#CCN1C(=O)c2ccccc2Sc2cc(Nc3cccnc3C#N)ccc21` [3-((10-(But-2-yn-1-yl)-11-oxo-10,11-dihydrodibenzo[b,f][1,4]thiazepin-7-yl)amino) picolinonitrile]: the IC50 under setting [4] is less than 500 nM.
In the case of `CC#CCN1C(=O)c2ccccc2Cc2cc(NC(=O)C34CC(O)(C3)C4)ccc21`, under setting [5], the IC50 was less than 500 nM.
Still for that read-out and setting: with `CC#CCN1C(=O)c2ccccc2C(C)c2cc(NC(=O)C3CC(COC)C3)ccc21` (centres unmarked) [Table 9: —CH2CCMe; 3-MeOCH2-cBu; CHMe] the figure was less than 500 nM.
In the case of `CC#CCN1C(=O)c2ccccc2Sc2cc(Nc3ncnc(C#N)c3C)cnc21`, the IC50 under setting [1] was less than 500 nM.
On to `CCC/C=C/CN1C(=O)c2ccccc2Sc2cc(Nc3nccc4ccccc34)ccc21` [(E)-10-(Hex-2-en-1-yl)-7-(isoquinolin-1-ylamino)dibenzo[b,f][1,4]thiazepin-11 (10H)-one], for which the IC50 under setting [4] was less than 500 nM.
Turning to `COCC=CC(=O)Nc1cnc2c(c1)Sc1ccccc1C(=O)N2CC#CC(F)(F)F` [—CH2CCCF3; CH═CHCH2OMe; CH/CH; N], the IC50 under setting [3] is less than 500 nM.
Regarding `CO[C@H]1C[C@H](C(=O)Nc2cnc3c(c2)Sc2ccccc2C(=O)N3CC#CCF)C1` [—CH2CCCH2F; trans-3-MeOcBu; CH/CH; N], the IC50 is, setting by setting: under setting [3], less than 500 nM; (cell viability assay, Table 10 analogs of scaffold drawing 45 defined by R2, R3, X/Y, W, read-out: Activity) less than 500 nM.
On to `CO[C@H]1C[C@H](C(=O)Nc2ccc3c(c2)C(C)(O)c2ccccc2C(=O)N3CC#CCl)C1` (stereo partly drawn) [Table 9: —CH2CCCl; trans-3-MeOcBu; CMeOH], for which the IC50 under setting [5] was less than 500 nM.
For the compound `CON=C1CC2(C1)CC(C(=O)Nc1cnc3c(c1)Sc1ccccc1C(=O)N3CC#CCl)C2` (centres unmarked), under setting [3], the IC50 is less than 500 nM.
On to `CC#CCN1C(=O)c2ccccc2C(C)c2cc(NC(=O)C3CC4(CC(O)C4)C3)ccc21` (centres unmarked), for which the IC50 under setting [5] was less than 500 nM.
In the case of `CC#CCN1C(=O)c2ccccc2Sc2cc(Nc3nnccc3C#N)cnc21`, the IC50 under setting [1] is less than 500 nM.
`CC#CCN1C(=O)c2ccccc2Sc2cc(NC(=O)C3CC4(COC4)C3)cnc21`: under setting [3], the IC50 is less than 500 nM.
With `C#CCOCCN1C(=O)c2ccccc2Sc2cc(NC(=O)c3ccoc3)ccc21` [—(CH2)2OCH2CCH; furan-3-yl; CH/CH; S], the IC50 under setting [6] was less than 500 nM.
For `CC#CCN1C(=O)c2ccccc2Sc2cc(NC(=O)C3CCC3)ccc21` [—CH2CCMe; cBu; CH/CH; CH], under setting [3], the IC50 is less than 500 nM.
Regarding `COCCN1C(=O)c2ccccc2Sc2cc(NC(=O)c3cccc(C(N)=O)c3)ccc21` [—(CH2)2OMe; 3-H2NC(O)Ph; CH/CH; S], under setting [6], the IC50 is 1000 to 5000 nM.
With `CC#CCN1C(=O)c2ccc(Cl)cc2Sc2cc(NC(=O)C=CCO)cnc21` [—CH2CCMe; CH—═CHCH2OH; CCI/CH; N], the IC50 under setting [3] was less than 500 nM.
With `CC#CCN1C(=O)c2ccccc2Sc2cc(Nc3nnccc3C#N)ccc21` [3-((10-(But-2-yn-1-yl)-11-oxo-10,11-dihydrodibenzo[b,f][1,4]thiazepin-7-yl)amino)pyridazine-4-carbonitrile], the IC50 under setting [4] is less than 500 nM.
For the compound `CC#CCN1C(=O)c2ccc(C#N)cc2Sc2cc(Nc3nccc(C#N)c3C)ccc21` [10-(But-2-yn-1-yl)-7-((4-cyano-3-methylpyridin-2-yl)amino)-11-oxo-10,11-dihydrodibenzo[b,f][1,4]thiazepine-3-carbonitrile], the IC50 under setting [4] was less than 500 nM.
As to `O=C1c2ccccc2Sc2cc(NC3COC3)ccc2N1CC#CCl` [Table 6: —CH2CCCl; oxetan-3-yl; CH/CH; S], the IC50 under setting [7] was less than 500 nM.
With `C#CCOCCN1C(=O)c2ccccc2Sc2cc(NC(=O)c3cccc(CCC#N)c3)ccc21` [—(CH2)2OCH2CCH; 3-(2′-CNEt)Ph; CH/CH; S], the IC50 under setting [6] was less than 500 nM.
Take `CC#CCN1C(=O)c2ccccc2Sc2cc(NC(=S)Nc3ccc4oc(=O)n(C)c4c3)ccc21`: the IC50 under setting [2] is less than 500 nM.
Consider `CC#CCN1C(=O)c2cc(F)ccc2Sc2cc(NC(=O)C3CCCO3)cnc21` (centres unmarked) [—CH2CCMe; tetrahydrofuran-2-yl; CH/CF; N], for which the IC50 under setting [3] was less than 500 nM.
As for `CC#CCN1C(=O)c2ccccc2Cc2cc(NC(=O)C3CC4(CC(=NO)C4)C3)ccc21` (centres unmarked), the IC50 under setting [5] was less than 500 nM.
With `CC#CCN1C(=O)c2cc(F)ccc2Sc2cc(NC(=O)C=CCO)cnc21` [—CH2CCMe; CH═CHCH2OH; CH/CF; N], the IC50 under setting [3] is less than 500 nM.
As to `O=C(CC1COC1)Nc1cnc2c(c1)Sc1ccccc1C(=O)N2CC#CC1CC1` [—CH2CC^cPr; (oxetan-3-yl)CH2; CH/CH; N], the IC50 under setting [3] was less than 500 nM.
Regarding `CC#CCN1C(=O)c2ccccc2Sc2cc(NC(=O)c3ccoc3)cnc21` [—CH2CCMe; furan-3-yl; CH/CH; N], under setting [3], the IC50 is less than 500 nM.
Take `CC#CCN1C(=O)c2ccccc2C(C)(O)c2cc(NC(=O)c3ccc(OC)cc3)ccc21` (centres unmarked) [Table 9: —CH2CCMe; 4-MeOPh; CMeOH, N-(5-(But-2-yn-1-yl)-11-hydroxy-11-methyl-6-oxo-6,11-dihydro-5H-dibenzo[b,e]azepin-2-yl)-4-methoxybenzamide]: where the note is “Homo sapiens, HCT-116, Table 9, HCT116, 72 hours, read-out: Activity”, the IC50 is less than 500 nM.
Take `CCCC=CCN1C(=O)c2ccccc2Sc2cc(Nc3ncccc3C#N)cnc21`: the IC50 under setting [1] was less than 500 nM.
As to `CC#CCN1C(=O)c2ccccc2Sc2cc(Nc3cc(C#N)ccn3)ccc21` [2-((10-(But-2-yn-1-yl)-11-oxo-10,11-dihydrodibenzo[b,f][1,4]thiazepin-7-yl)amino) isonicotinonitrile], the IC50 under setting [4] is less than 500 nM.
As for `COCCN1C(=O)c2ccccc2Sc2cc(NC(=O)C3CCCCC3)ccc21` [—(CH2)2OMe; cHex; CH/CH; S], under setting [6], the IC50 lay in the range of 1000 to 5000 nM.
As to `CC1c2ccccc2C(=O)N(CC#CC2CC2)c2ccc(NC(=O)C3CC4(COC4)C3)cc21` (centres unmarked), the IC50 under setting [5] is less than 500 nM.
Regarding `CC#CCN1C(=O)c2ccccc2Sc2cc(NC(=O)C(C)CCOC)ccc21` (centres unmarked) [—CH2CCMe; MeO(CH2)2CHMe-; CH/CH; CH], the IC50 under setting [3] is less than 500 nM.
Turning to `CC#CCN1C(=O)c2ccccc2Sc2cc(NC(=O)NC34CC(OC)(C3)C4)cnc21`, the IC50 (Table 3, HCT116, 72 hours, read-out: Activity) is less than 500 nM.
In the case of `CC#CCN1C(=O)c2ccccc2Sc2cc(NC(=O)NCCOC)ccc21` [—CH2CCMe; NH(CH2)2OMe; CH/CH; CH], the IC50 under setting [3] is less than 500 nM.
On to `O=C(Nc1ccc2c(c1)Cc1ccccc1C(=O)N2CC#CC1CC1)C1CC2(COC2)C1`, for which the IC50 under setting [5] is less than 500 nM.
Turning to `CC#CCN1C(=O)c2ccccc2Sc2cc(NC3CC(COC)C3)ccc21` (centres unmarked), the IC50 under setting [7] was less than 500 nM.
`COCCN1C(=O)c2ccccc2Sc2cc(NC(=O)c3cccc(C(=O)N(C)C)c3)ccc21` [—(CH2)2OMe; 3-Me2NC(O)Ph; CH/CH; S]: the IC50 under setting [6] lay in the range of 500 to 1000 nM.
On to `C#CCN1C(=O)c2ccccc2Sc2cc(NC3CC(COC)C3)cnc21` (centres unmarked) [Table 6: —CH2CCH; 3-MeOCH2-cBu; CH/N; S], for which the IC50 under setting [7] is less than 500 nM.
As to `CC#CCN1C(=O)c2ccc(C#N)cc2Sc2cc(NC(=O)[C@@H]3C[C@H]3COC)cnc21` (relative stereo) [—CH2CCMe; trans-2-MeOCH2-cPr; CCN/CH; N], under setting [3], the IC50 was less than 500 nM.
For the compound `CC#CCN1C(=O)c2ccc(F)cc2Sc2cc(Nc3nccnc3C)ccc21` [10-(But-2-yn-1-yl)-3-fluoro-7-((3-methylpyrazin-2-yl)amino)dibenzo[b,f][1,4]thiazepin-11 (10H)-one], the IC50 under setting [4] is less than 500 nM.
As to `CC#CCN1C(=O)c2ccccc2Sc2cc(NC(=O)N3CCC3)cnc21` [Table 1: —CH2CCMe; azetidin-1-yl; CH; N], the IC50 (Table 1, HCT116, 72 hours, read-out: Activity) was less than 500 nM.
Regarding `CC#CCN1C(=O)c2ccccc2Sc2cc(NC(=O)C=CCO)ccc21` [—CH2CCMe; CH—CHCH2OH; CH/CH; CH], the IC50 under setting [3] was less than 500 nM.
Regarding `COCCN1C(=O)c2ccccc2Sc2cc(NC(=O)c3ccc(NC=O)c(Cl)c3)ccc21` [—(CH2)2OMe; 3-Cl,4-HC(O)NHPh; CH/CH; S], the IC50 under setting [6] lay in the range of 1000 to 5000 nM.
Regarding `CC#CCN1C(=O)c2ccccc2Sc2cc(NC(=O)C3CCC3)cnc21` [—CH2CCMe; cBu; CH/CH; N], the IC50 under setting [3] was less than 500 nM.
Regarding `CC#CCN1C(=O)c2ccccc2Sc2cc(Nc3ncc(C)nc3C)cnc21`, under setting [1], the IC50 was less than 500 nM.
On to `CC#CCN1C(=O)c2ccccc2Sc2cc(NC(=S)N[C@H]3C[C@H](OC)C3)ccc21` [Table 4: —CH2CCMe; trans-3-MeOcBu; CH], for which the IC50 under setting [2] was less than 500 nM.
For the compound `CC#CCN1C(=O)c2ccccc2Sc2cc(NC(=O)NCCOC)cnc21` [—CH2CCMe; NH(CH2)2OMe; CH/CH; N], under setting [3], the IC50 was less than 500 nM.
As to `CCC/C=C/CN1C(=O)c2ccccc2Sc2cc(Nc3cc(OC)ccn3)ccc21` [(E)-10-(Hex-2-en-1-yl)-7-((4-methoxypyridin-2-yl)amino)dibenzo[b,f][1,4]thiazepin-11 (10H)-one], the IC50 under setting [4] was less than 500 nM.
Turning to `COCCN1C(=O)c2ccccc2Sc2cc(NC(=O)c3cc(F)c(OC)c(F)c3)ccc21` [—(CH2)2OMe; 3,5-F2,4-MeOPh; CH/CH; S], under setting [6], the IC50 was 500 to 1000 nM.
On to `CC#CCN1C(=O)c2ccccc2Sc2cc(NC(=O)c3ccc(OC)nc3)ccc21` [—CH2CCMe; 6-MeO-pyrid-3-yl; CH/CH; CH], for which, under setting [3], the IC50 is less than 500 nM.
In the case of `CC#CCN1C(=O)c2ccccc2Sc2cc(NC(=O)C3CCOC3)ccc21` (centres unmarked), the IC50 under setting [3] is less than 500 nM.
For the compound `CC#CCN1C(=O)c2ccc(Cl)cc2Sc2cc(NC(=O)[C@H]3C[C@@H]3COC)ccc21` (relative stereo) [—CH2CCMe; trans-2-MeOCH2-cPr; CCl/CH; CH], the IC50 under setting [3] is less than 500 nM.
